The subject of assay [1] is Staphylococcus aureus ATCC 700699 (MRSA). Put plainly: minimum inhibitory concentration; extreme values may be limits of the assay. Put shortly: (§1)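 Methicillin-susceptible and methicillin-resistant Staphylococcus aureus were tested by broth microdilution in 96-well plates, following CLSI guidance with a resazurin redox read-out. Compounds were tested from 0 to 100 µM and incubated with bacteria for 24 h at 37°C, then 30 µl of 0.015% resazurin was added for 2–4 h, with positive controls on each plate. The minimum inhibitory concentration was the lowest concentration that stayed blue rather than turning pink. Runs were done at least twice in triplicate.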

Assay [2] concerns Staphylococcus aureus ATCC 29213 (MSSA). The assay is described as above. Put shortly:
as §1

≈ marks a conversion by molar mass, not a printed value.

As to `CC(C)(C)n1nc(Cc2cccc3ccccc23)c2c(N)ncnc21`, the minimum inhibitory concentration in assay [1] and in assay [2] was above 50 µM throughout.

Take `Cc1cc(C2=NOC(c3cc(Cl)c(F)c(Cl)c3)(C(F)(F)F)C2)ccc1C(=O)NCc1ccc2c(c1)C(C)(C)OB2O` (stereo unspecified): the minimum inhibitory concentration in assay [1] and in assay [2] was above 50 µM each time.

Turning to `COc1ccc(CN2CCOc3ccc(C(C)(O)CN(C)C)cc3C2)cc1C` (stereo unspecified), the minimum inhibitory concentration in assay [1] and in assay [2] was above 50 µM each time.

For `COC(=O)Nc1nc2cc(C(=O)c3ccccc3)ccc2[nH]1`, the minimum inhibitory concentration in assay [1] and in assay [2] was above 50 µM throughout.

Consider `CC(C)(C)c1cnc(NC(=O)c2ccccc2O)s1`, for which the minimum inhibitory concentration in assay [1] and in assay [2] was above 50 µM each time.

Take `C[C@H](c1ccc2c(c1)CCCC2)N(C)c1ncc2c(N)nc(N)nc2n1`: the minimum inhibitory concentration in assay [1] and in assay [2] was 50 µM (≈ 17.5 µg/mL) in each case.

Take `FC(F)(F)c1nnc2ccc(Cl)nn12`: the minimum inhibitory concentration in assay [1] and in assay [2] was above 50 µM throughout.

With `Cc1cc(OCC(=O)Nc2ccc(C(C)C)cc2)n(C)c(=O)c1C#N`, the minimum inhibitory concentration in assay [1] and in assay [2] was above 50 µM in each case.

As to `COc1ccc(Cn2cnc3c(-c4ccco4)nc(Cl)nc32)cc1`, the minimum inhibitory concentration in assay [1] and in assay [2] was above 50 µM in each case.

With `Cc1[nH]c2ccccc2c1C(c1cccs1)N1CCN(C)CC1` (stereo unspecified), the minimum inhibitory concentration in assay [1] and in assay [2] was 50 µM (≈ 16.3 µg/mL) throughout.

For `CCC(C)NC(=O)c1ccc(NC(=O)C2(c3ccccc3)CCCC2)cc1` (stereo unspecified), the minimum inhibitory concentration in assay [1] and in assay [2] was above 50 µM throughout.

In the case of `Cc1cc(O)nc(-n2nc(C)cc2C)n1`, the minimum inhibitory concentration in assay [1] and in assay [2] was above 50 µM each time.

Turning to `COc1ccccc1C(C)NCC(=O)Nc1cc(C(F)(F)F)ccc1Cl` (stereo unspecified), the minimum inhibitory concentration in assay [1] and in assay [2] was above 50 µM in each case.

In the case of `NS(=O)(=O)c1cncc(-c2ccc3nccc(-c4cn[nH]c4)c3n2)c1`, the minimum inhibitory concentration in assay [1] and in assay [2] was above 50 µM each time.

On to `O=C(OCc1ccccc1)N1CCC(c2cc(-c3ccncc3)c(-c3ccc(F)cc3)[nH]2)CC1`, for which the minimum inhibitory concentration in assay [1] and in assay [2] was above 50 µM in each case.

For `CS(=O)(=O)c1ccccc1C(=O)N(Cc1ccccc1)c1ccccc1`, the minimum inhibitory concentration in assay [1] and in assay [2] was above 50 µM in each case.

Turning to `Cn1ccnc1CNCCS(=O)(=O)c1cccc(Nc2ccc(-c3cccc(F)c3)cn2)c1`, the minimum inhibitory concentration in assay [1] and in assay [2] was above 50 µM throughout.

With `Cc1cc(NC(=O)c2ccc(Oc3ccc(Cl)cc3O)o2)no1`, the results for the minimum inhibitory concentration in assay [1] and in assay [2] were 50 µM (≈ 16.7 µg/mL) and above 50 µM, respectively.

Take `O[C@@H](c1cc(C(F)(F)F)nc2c(C(F)(F)F)cccc12)[C@H]1CCCCN1`: the minimum inhibitory concentration turned out to be 25 µM (≈ 9.46 µg/mL) in assay [1] and 50 µM (≈ 18.9 µg/mL) in assay [2].

Consider `CC(C)n1ncc2c(C(=O)NCC(c3cccs3)N3CCOCC3)cc(-c3ccccc3)nc21` (stereo unspecified), for which the minimum inhibitory concentration in assay [1] and in assay [2] was above 50 µM throughout.

Take `CC(C)=CCC/C(C)=C/CNCCNC1C2CC3CC(C2)CC1C3` (stereo unspecified): the minimum inhibitory concentration in assay [1] and in assay [2] was 50 µM (≈ 16.5 µg/mL) in each case.

As to `FC(F)(F)c1ccc(N(c2cccnc2)C2CCN(c3ccc(C(F)(F)F)cn3)CC2)cc1`, the minimum inhibitory concentration in assay [1] and in assay [2] was above 50 µM throughout.

Regarding `Nc1c2c(nc3sc4c(c13)CCCC4)CCCC2`, the minimum inhibitory concentration in assay [1] and in assay [2] was above 50 µM throughout.

With `Cc1ccc(-c2cc(C(=O)Nc3cccnc3)c3cc(Br)ccc3n2)cc1`, the minimum inhibitory concentration in assay [1] and in assay [2] was 50 µM (≈ 20.9 µg/mL) throughout.

As for `c1cncc(NCc2ccc(-c3cc4ccncc4cc3OC3CCNCC3)s2)c1`, the minimum inhibitory concentration in assay [1] and in assay [2] was above 50 µM each time.

As to `CCCCN(CCCC)c1c(C#N)cc(S(=O)(=O)Nc2ccccc2)cc1C#N`, the minimum inhibitory concentration in assay [1] and in assay [2] was above 50 µM in each case.

For `C[C@@H]1[C@H](O)[C@@H](C)/C=C/C=C/C=C/C=C/C=C/C=C/C=C/[C@H](O[C@@H]2O[C@H](C)[C@@H](O)[C@H](N)[C@@H]2O)C[C@@H]2O[C@](O)(C[C@@H](O)C[C@@H](O)[C@H](O)CC[C@@H](O)C[C@@H](O)CC(=O)O[C@H]1C)C[C@H](O)[C@H]2C(=O)O`, the minimum inhibitory concentration in assay [1] and in assay [2] was 50 µM (≈ 46.2 µg/mL) throughout.

For `O=C(C(Cc1c[nH]c2ccccc12)NS(=O)(=O)c1ccc(Cl)cc1)N1CCCCC1` (stereo unspecified), the minimum inhibitory concentration in assay [1] and in assay [2] was above 50 µM in each case.

Turning to `CC1=Nc2ccc(Cl)cc2C(c2ccccc2)N1CCNC(=O)CN(C)C` (stereo unspecified), the minimum inhibitory concentration in assay [1] and in assay [2] was above 50 µM in each case.

As to `CC1COC(Cn2cncn2)(c2ccc(Oc3ccc(Cl)cc3)cc2Cl)O1` (stereo unspecified), the minimum inhibitory concentration in assay [1] and in assay [2] was above 50 µM each time.

Consider `Clc1ccc(-n2cc(COc3ccnc4ccccc34)nn2)cc1`, for which the minimum inhibitory concentration in assay [1] and in assay [2] was above 50 µM throughout.

Regarding `O=C1COCc2ccc(Br)cc2N1Cc1ccc(C(F)(F)F)cc1`, the minimum inhibitory concentration in assay [1] and in assay [2] was above 50 µM throughout.

For `COc1ccc(C2CC(c3cccs3)=NN2C(=O)c2ccco2)cc1OC` (stereo unspecified), the minimum inhibitory concentration in assay [1] and in assay [2] was above 50 µM in each case.

With `CC(C)(C)CN1C(=O)C(c2ccccc2)(c2ccccc2)N=C1N`, the minimum inhibitory concentration in assay [1] and in assay [2] was above 50 µM each time.

Take `Cc1nc(-c2ccccn2)nc(NCCc2ccc(S(C)(=O)=O)cc2)c1Cl`: the minimum inhibitory concentration in assay [1] and in assay [2] was above 50 µM each time.

In the case of `O=C(Nc1ccc(N2CCNCC2)nc1)c1oc(-c2ccccc2)nc1C(F)(F)F`, the minimum inhibitory concentration in assay [1] and in assay [2] was above 50 µM throughout.

Take `Cc1nn2c(O)c3c(nc2c1-c1ccc(F)cc1)CCCC3`: the minimum inhibitory concentration in assay [1] and in assay [2] was above 50 µM each time.

In the case of `CNC(=O)CNc1nc(-c2ccccn2)nc2scc(-c3ccccc3)c12`, the minimum inhibitory concentration in assay [1] and in assay [2] was above 50 µM each time.

Consider `Cc1cc(OCC(=O)NCc2ccccc2)c2cc(Br)ccc2n1`, for which the minimum inhibitory concentration in assay [1] and in assay [2] was above 50 µM in each case.

As to `CC(=O)Nc1ccc(NC(=O)c2cc(-c3cc(Cl)ccc3O)n[nH]2)cc1`, the minimum inhibitory concentration in assay [1] and in assay [2] was above 50 µM throughout.

With `Clc1cccc(CO[C@H]2CCc3ccccc3[C@@H]2n2ccnn2)c1`, the minimum inhibitory concentration in assay [1] and in assay [2] was above 50 µM throughout.

As for `CC(Oc1cccc(Cl)c1)C(=O)Nc1ccc2oc(-c3ccncc3)nc2c1` (stereo unspecified), the minimum inhibitory concentration in assay [1] and in assay [2] was above 50 µM each time.

Turning to `Cc1cc(C)n(-c2ccc(NC(=O)C3CCN(Cc4cnc(C)s4)CC3)cc2)n1`, the minimum inhibitory concentration in assay [1] and in assay [2] was above 50 µM each time.
